How the values were obtained:
[1] = system: tau aggregates or amyloid-β aggregates; test: In vitro fluorescence microscope measurement, AD patient brain sections compared with DLB sections; assay type: binding, human; conditions: for binding to α-synuclein aggregates compared with binding to tau aggregates or amyloid-β aggregates formed in the brain of the AD patient: 30 μmol/l test compound, DLB amygdala vs AD superior temporal gyrus sections; for ratio of binding to α-synuclein aggregates to binding to tau aggregates or amyloid-β aggregates, compared with the ratio of C05-05: 30 μmol/l, fluorescence intensity quantified, FIG. 2, comparator C05-05
From the text: (§1) Postmortem human brains were obtained in autopsies carried out with respect to a patient with dementia with Lewy bodies (DLB) and a patient with Alzheimer's disease (AD). In a cryostat (HM560, Carl Zeiss), frozen tissue from the DLB patient was sliced into sections each having a thickness of 20 μm. Brain tissue from the AD patient was fixed in 10% neutral buffered formalin, embedded in a paraffin block, and sliced into sections each having a thickness of 6 μm.
(§2) Each brain section and a 30 μmol/l test compound were incubated in a 50% ethanol solution at room temperature for 30 minutes. Subsequently, the sections were rinsed with 50% ethanol for 5 minutes and dipped into double-distilled water twice for 3 minutes each. After the section was mounted in a mounting medium (VECTASHIELD H-1000, Vector Laboratories), an image of a lesion-enriched area on the section was obtained with use of a fluorescence microscope (DM4000, Leica). In FIG. 1, each arrowhead indicates fluorescence from the compound binding to α-synuclein aggregates in the brain of the DLB patient, each arrow indicates fluorescence from the compound binding to amyloid-β aggregates in the brain of the AD patient, and an asterisk indicates fluorescence from the compound binding to tau aggregates in the brain of the AD patient. The fluorescence intensities of lesion-enriched areas and lesion-free areas (background) were quantified with use of analysis software (Image J). Note that SPAL-T-83, SPAL-T-95, and SPAL-E-17 were each used as the test compound. Note also that ((E)-1-fluoro-3-(2-(4-(6-(methylamino)pyridin-3-yl)but-1-en-3-ynyl)benzo[d]thiazol-6-yloxy)propan-2-ol (C05-05) synthesized by the method disclosed in Synthetic Example 21 of Patent Literature 2 (International Publication No. WO 2020/174963) listed above was used as a control compound.

[2] = molecular target: T1, α-synuclein aggregates (Homo sapiens, UniProt P37840); test: In vitro fluorescence microscope measurement, DLB patient brain sections; assay type: binding; design: from tissue; host or cells: amygdala sections of a DLB patient's postmortem brain; conditions: 30 μmol/l test compound, 50% ethanol, amygdala sections of DLB patient, FIGS. 1 and 2
From the text: as §1, §2

[3] = molecular target: T2, phosphorylated α-synuclein (Mus musculus, UniProt O55042); test: In vitro fluorescence microscope measurement, brain sections of α-synuclein fibril-inoculated mouse; assay type: binding; conditions: 30 μmol/l test compound, 20% ethanol, co-stained with pS129 antibody, FIG. 3
T2 construct: from tissue; host or cells: brain of a C57/BL/6 mouse inoculated in the striatum with recombinant mouse α-synuclein fibrils (made in E. coli)
Experimental: When mouse α-synuclein is expressed in and extracted from E. coli as a recombinant protein and then incubated in vitro, insoluble α-synuclein aggregates are formed. By inoculating these α-synuclein aggregates into the striatum of a mouse, the α-synuclein aggregates propagate to surrounding areas via the neural circuitry, and an α-synuclein lesion is observed in the cerebral neocortex several months later (Masuda-Suzukake et al. Acta Neuropathol Commun 2, 88, 2014; Shimozawa et al. Acta Neuropathol Commun 5, 12, 2017). By extracting the brain of this mouse, preparing a section, and then analyzing the section by fluorescent staining, it is possible to examine whether the compound in accordance with an embodiment of the present invention binds to a lesion caused by phosphorylated α-synuclein.
First, mouse α-synuclein was expressed in and extracted from E. coli as a recombinant protein, and then incubated in vitro to form insoluble α-synuclein aggregates. The α-synuclein aggregates were then inoculated into the striatum of a mouse. […] Note that the inoculation of the α-synuclein aggregates into the striatum of the mouse was carried out in the following manner. […]
The brain of this α-synuclein fibril-inoculated mouse was extracted, and then sections were prepared. The sections were analyzed by fluorescent staining. […] After the section was mounted in a mounting medium (VECTASHIELD H-1000), an image of an α-synuclein aggregate-enriched area on the section was obtained with use of a fluorescence microscope (DM4000). […] After the section was subjected to immunohistochemical staining with use of an anti-phosphorylated α-synuclein monoclonal antibody (pS129, abcam, ab59264) (1:1000) and then mounted in a mounting medium (VECTASHIELD H-1000), an image of the same area as above was obtained with use of a fluorescence microscope (DM4000). […] In FIG. 3, each arrowhead indicates a lesion, caused by phosphorylated α-synuclein, in the brain of the α-synuclein fibril-inoculated mouse and fluorescence from the compound binding to the phosphorylated α-synuclein.

[4] = molecular target: T3, α-synuclein lesions (Mus musculus, UniProt O55042); test: In vivo two-photon laser scanning fluorescence microscopy of α-synuclein fibril-inoculated mouse; conditions: 50 μl of 0.1% DMSO solution, imaging 30 minutes after administration, FIG. 4; for binding to α-synuclein lesions in vivo: excitation 900 nm
T3 construct: from tissue; host or cells: brain of a C57/BL/6 mouse inoculated in the striatum with recombinant mouse α-synuclein fibrils (made in E. coli)
Experimental: First, mouse α-synuclein was expressed in and extracted from E. coli as a recombinant protein, and then incubated in vitro to form insoluble α-synuclein aggregates. The α-synuclein aggregates were then inoculated into the striatum of a mouse. […] Note that the inoculation of the α-synuclein aggregates into the striatum of the mouse was carried out in the following manner. First, hair on the head of a 9-week-old C57/BL/6 male mouse which had been anesthetized with 1.5% (v/v) isoflurane was removed, and the scalp was disinfected with isodine, followed by application of xylocaine and incision in the scalp to expose the skull. Then, a hole was drilled in the skull at a position of 0.05 mm posterior to the bregma and 2 mm lateral to the midline, and 3 μl of an α-synuclein fibril solution (mouse α-synuclein fibril (4 mg/ml) in saline) was injected into a position 2 mm ventral to the brain surface with use of a glass pipette. The scalp was then returned and sutured.
A model mouse was anesthetized with 1.5% (v/v) isoflurane 4 or more months after inoculation of an α-synuclein fibril solution. Then, a cranial window was placed on the model mouse in accordance with the Seylaz-Tomita method (Tomita et al. J Cereb Blood Flow Metab 25, 858-67, 2005). Two or more weeks after the placement of the cranial window, the mouse was fixed under a two-photon laser fluorescence microscope, 100 μl of physiological saline containing 5 mmol/1 Sulforhodamine 101 was intraperitoneally administered to the mouse, and then intravital two-photon fluorescence imaging was carried out at an excitation wavelength of 900 nm. Thereafter, 50 μl of DMSO solution containing C05-05, SPAL-T-83, SPAL-T-95, or SPAL-E-17 at a 0.1% concentration was intraperitoneally administered to the mouse. Thirty minutes after the administration, intravital two-photon fluorescence imaging was carried out at an excitation wavelength of 900 nm. Detection wavelengths for C05-05, SPAL-T-83, SPAL-T-95, and SPAL-E-17 were set at 500 nm to 550 nm, and a detection wavelength for Sulforhodamine 101 was set at 573 nm to 648 nm. In FIG. 4, each arrow indicates a blood vessel, and each arrowhead indicates fluorescence from the compound binding to an α-synuclein lesion.

[5] = molecular target: T1, α-synuclein aggregates; conditions: background art, cited from earlier work

SMILES | binding to α-synuclein aggregates compared with binding to tau aggregates or amyloid-β aggregates formed in the brain of the AD patient [1] | ratio of binding to α-synuclein aggregates to binding to tau aggregates or amyloid-β aggregates, compared with the ratio of C05-05 [1] | binding to α-synuclein aggregates formed in the brain of the DLB patient (fluorescence) [2] | binding to a lesion caused by phosphorylated α-synuclein [3] | delivery into the brain and neurons of the living body [4] | binding to α-synuclein lesions in vivo [4] | binding selectivity with respect to the α-synuclein aggregates ([5]; binds to amyloid-β aggregates) | binding affinity with respect to the α-synuclein aggregates [5]
CNc1ccc(C#C/C=C/c2nc3ccc(NCC(O)CF)cc3s2)cn1 (stereo not shown) [SPAL-T-95, (E)-1-fluoro-3-((2-(4-(6-(methylamino)pyridin-3-yl)but-1-en-3-yn-1-yl)benzo[d]thiazol-6-yl)amino)propan-2-ol] | greater | higher | bound to α-synuclein aggregates | bound to a lesion caused by phosphorylated α-synuclein | delivered into the brain and further into neurons of the living body | bound to α-synuclein lesions |  | 
CNc1cnc(C#C/C=C/c2nc3ccc(NCC(O)CF)cc3s2)cn1 (stereo not shown) [SPAL-T-83, (E)-1-fluoro-3-((2-(4-(5-(methylamino)pyrazin-2-yl)but-1-en-3-yn-1-yl)benzo[d]thiazol-6-yl)amino)propan-2-ol] | greater | higher | bound to α-synuclein aggregates | bound to a lesion caused by phosphorylated α-synuclein | delivered into the brain and further into neurons of the living body | bound to α-synuclein lesions |  | 
CNc1cnc(C#C/C=C/c2nc3ccc(OCC(O)CF)nc3s2)cn1 (stereo not shown) [SPAL-E-17, (E)-1-fluoro-3-((2-(4-(5-(methylamino)pyrazin-2-yl)but-1-en-3-yn-1-yl)thiazolo[5,4-b]pyridin-5-yl)oxy)propan-2-ol] | greater | higher | bound to α-synuclein aggregates | bound to a lesion caused by phosphorylated α-synuclein | delivered into the brain and further into neurons of the living body | bound to α-synuclein lesions |  | 
CNc1ccc(C#C/C=C/c2nc3ccc(OCC(O)CF)cc3s2)cn1 (stereo not shown) [Compound C05-05, reference compound] |  |  |  |  | delivered into the brain and further into neurons of the living body | bound to α-synuclein lesions |  | 
CN([11CH3])c1ncc(/C=C/c2nc3ccc(OCCF)cc3o2)s1 [[^11C]BF-227] |  |  |  |  |  |  | low binding selectivity | insufficient binding affinity

Source: patent US20250177579A1, “NOVEL COMPOUND, a-SYNUCLEIN AGGREGATE BINDER, AND USE THEREOF” (NATIONAL INSTITUTES FOR QUANTUM SCIENCE AND TECHNOLOGY, priority 2022, published 2025)
